Here are results for two molecules from patent US20230338454A1, “FORSYTHIA SUSPENSA COMPONENT AND OPTIONAL PANAX GINSENG COMPONENT AND THE APPLICATION” (priority 2020, published 2023).

Data set [1] deals with parainfluenza virus. Type of data set: in vivo, Kunming mice.
For data set [2], the system named is parainfluenza virus. Type of data set: in vivo, Kunming mice. This is another data set of the same source.
The subject of data set [3] is Herpes simplex virus type 1 (HSV-1). Briefly: Effect of drugs on viral cytopathic effect, effective antiviral rate (ER%). Type of data set: cell-based. Particulars: Vero cells, 100TCID50, drug at maximum non-toxic concentration, 72 h, MTT.
In data set [4] the test system is sweat secretion of rat paw. In words: Sweat secretion of rat paw (staining method). Type of data set: in vivo, Wistar rats. Particulars: of 10 rats; dose not printed, gavage. An excerpt:
There are sweat glands on the plantar skin of rats, so the changes in sweat secretion can be observed by the purple reaction between the iodine-starch mixture and the sweat. Five hundred Wistar rats, half male and half female, weighing 120-150 g, were taken in the study. […] The rats were placed in a homemade rat-fixing bag to expose both hind limbs. The dirt on the right paw was gently scrubbed with a cotton swab dipped in absolute ethanol. Except for the pilocarpine solution, which was given by subcutaneous injection, other groups were administered by gavage. One hour after administration (30 min after administration in the pilocarpine group), the sweat secreted from the right paw of rats in each group was gently cleaned with a dry cotton swab before the study and during struggling. The right paw was coated with Wotan-[…] reagent A solution (dissolve 2 g of iodine in 100 mL of absolute ethanol) and then coated with Wotan-[…] reagent B solution (mix 50 g of soluble starch and 100 mL of Ricinus conununis oil well) after reagent A was fully absorbed. […] At the end of the test, a rank-sum test was used to analyze the differences among the groups.

For another data set, the system named is Coxsackievirus B3 (CVB3). Briefly: Effect of drugs on viral cytopathic effect, effective antiviral rate (ER%). The data set is classed as cell-based. Particulars: Vero cells, 100TCID50, drug at maximum non-toxic concentration, 72 h, MTT. Background: Cytopathic effects are the visible damage that an infection or toxin causes in cultured cells.
Another data set relates to HCMV AD169 strain. In words: Inhibitory effect on HCMV in vitro (MEC, therapeutic index). Particulars: HCMV AD169, 100 times TCD50, 10 days of culture. The data set is classed as cell-based, human cytomegalovirus. The procedure:
Human embryonic lung fibroblast cell strain (purchased from Sino Best Biological Technology Co., Ltd.). The cells were cultured and subcultured according to the conventional method.
HCMV AD169 strain was purchased from American Type Culture Collection (ATCC).
Cells were inoculated in a 96-well plate, allowed to grow into monolayers, and inoculated with a virus challenge of 100 times TCD50. Starting from TD0, each drug was diluted stepwise according to 10-fold gradient to prepare 5 concentrations, with 4 wells set for each concentration. In addition, 4 wells of normal cell control and 4 wells of virus control were set.

The subject of data set [5] is Human embryonic lung fibroblast cell strain. Briefly: Drug toxicity testing (MTT and cytopathic effect methods), maximum non-toxic concentration TD0. Particulars: human embryonic lung fibroblasts.
The mark [6] stands for this setting: […], 13.0 mg/kg/day by gavage, 5 days.
[7] abbreviates: mice infected with parainfluenza virus, 13.0 mg/kg/day by gavage, 5 days.

Where two headings read alike, the source gives them in different places.

With `CC(C)=CCC[C@](C)(O)[C@H]1CC[C@]2(C)[C@@H]1[C@H](O)C[C@@H]1[C@@]3(C)CC[C@H](O[C@@H]4O[C@H](CO)[C@@H](O)[C@H](O)[C@H]4O[C@@H]4O[C@H](CO)[C@@H](O)[C@H](O)[C@H]4O)C(C)(C)[C@@H]3CC[C@]12C` [20(R)-Ginsenoside Rg3, 20(R)-ginsenoside Rg3], in the data set on parainfluenza virus [1] (setting [6]), the “Hemagglutinin titer (InX)” value is reported as 23.79±1.072 and the “Inhibitory rate (%) of hemagglutination titer” value was 28.15%. For the same molecule, in the data set with parainfluenza virus [2] (setting [7]), the “Lung index (x̅ ±S)” value turned out to be 1.357±0.050 and the “Lung index Inhibitory rate (%)” value worked out at 14.69%. Moreover, in the data set with parainfluenza virus [2] (mice infected with parainfluenza virus, P < 0.05 or P < 0.01), the “Lung index compared with the infection model group, in words” value is recorded as “decreased significantly”. Further, the “Effective Antiviral Rates (ER%) HSV-I” value in data set [3] is listed as 83.61^∗∗ %. Further, in data set [4], the “Number of animals with sweat spots of each grade at 1 min after application of solution B: grade +” value is 1 animals, the “Number of animals with sweat spots of each grade at 1 min after application of solution B: grade ++” value is 3 animals, the “Number of animals with sweat spots of each grade at 1 min after application of solution B: grade +++” value amounted to 3 animals and the “Number of animals with sweat spots of each grade at 1 min after application of solution B: grade +++ (fifth grade column)” value amounted to 3 animals. In data set [4], the “Number of animals with sweat spots of each grade at 1 min after application of solution B: grade -” value is reported as 0 animals, the “Number of animals with sweat spots of each grade at 5 min after application of solution B: grade +” value turned out to be 1 animals, the “Number of animals with sweat spots of each grade at 5 min after application of solution B: grade ++” value stood at 3 animals and the “Number of animals with sweat spots of each grade at 5 min after application of solution B: grade +++” value turned out to be 2 animals. For the same molecule, in data set [4], the “Number of animals with sweat spots of each grade at 5 min after application of solution B: grade +++ (fifth grade column)” value was 4 animals and the “Number of animals with sweat spots of each grade at 5 min after application of solution B: grade -” value is listed as 0 animals. Besides, the “Effective Antiviral Rates (ER%) CVB3” value with Coxsackievirus B3 (CVB3) worked out at 53.75%.

Take `COc1ccc([C@H]2OCC3C2CO[C@H]3c2ccc(O[C@@H]3OC(CO)[C@@H](O)[C@H](O)C3O)c(OC)c2)cc1OC` (some centres unmarked) [Forsythin]: in the data set with HCMV AD169 strain, the “Minimum effective concentration MEC” value was 4 mg/L. Also, in the data set on parainfluenza virus [1] (mouse, in vivo, 13 mg/kg/day), the “Hemagglutinin titer (InX)” value is 23.17±1.059 and the “Inhibitory rate (%) of hemagglutination titer” value turned out to be 30.01%. Also, in the data set on parainfluenza virus [2] (mouse, in vivo, 13 mg/kg/day), the “Lung index (x̅ ±S)” value was 1.335±0.062 and the “Lung index Inhibitory rate (%)” value worked out at 16.10%. Also, in data set [3], the “Effective Antiviral Rates (ER%) HSV-I” value is recorded as 85.00^∗∗ %. Further, in data set [4], the “Number of animals with sweat spots of each grade at 1 min after application of solution B: grade +” value amounted to 2 animals, the “Number of animals with sweat spots of each grade at 1 min after application of solution B: grade ++” value is on record as 2 animals, the “Number of animals with sweat spots of each grade at 1 min after application of solution B: grade +++” value is recorded as 2 animals and the “Number of animals with sweat spots of each grade at 1 min after application of solution B: grade +++ (fifth grade column)” value came out at 4 animals. In data set [4], the “Number of animals with sweat spots of each grade at 1 min after application of solution B: grade -” value is recorded as 0 animals, the “Number of animals with sweat spots of each grade at 5 min after application of solution B: grade +” value is 1 animals, the “Number of animals with sweat spots of each grade at 5 min after application of solution B: grade ++” value came to 2 animals and the “Number of animals with sweat spots of each grade at 5 min after application of solution B: grade +++” value came to 2 animals. For the same molecule, in data set [4], the “Number of animals with sweat spots of each grade at 5 min after application of solution B: grade +++ (fifth grade column)” value was 5 animals and the “Number of animals with sweat spots of each grade at 5 min after application of solution B: grade -” value is given as 0 animals. For the same molecule, in the data set on Coxsackievirus B3 (CVB3), the “Effective Antiviral Rates (ER%) CVB3” value is on record as 75.27^∗∗ %. Besides, the “Maximum non-toxic concentration TD0” value in data set [5] was 40 mg/L.
